# From patent US20040001834A1, “Phospholipase A2 enzyme, antibodies and inhibitors thereto” (priority 2002, published 2004)
# “Also recorded” adds a separate entry of the source.
# How the values were obtained:
# [1] = test system: rPLA2; experiment: rPLA2 enzyme activity assay with 2-[1-14C]AA-GPC substrate in the presence of inhibitors or divalent metal ions; assay type: biochemical, bovine; settings: for inhibition of rPLA2 activity: substrate 2-[1-14C]AA-GPC, 10 min; for effect on rPLA2 activity compared with cPLA2: comparison rPLA2 versus cPLA2
# Procedure: To verify the effect of known inhibitors on the activity of rPLA2, the various concentrations of inhibitors, i.e., DTT (dithiothtreitol), AACOCF3 (arachidonylfluoromethyl ketone) known as the cPLA2 inhibitor, mepacrine and methyl mercury, mercuric chloride known as the sPLA2 inhibitors were added to active pool from Mono Q column and reacted 2-[1-^14C]-AA-GPC as a substrate for 10 min. The comparative groups, cPLA2 and sPLA2, were subjected to in a same procedure.
# To verify the effect of divalent metal ions on enzyme activity, to rPLA2 activity, various concentrations of divalent metal i.e., Zn^2+, Fe^2+, Cu^2+, Sr^2+, Ba^2+, Mn^2+ and Mg^2+ were added to active pool from Mono Q column and reacted 2-[1-^14C]-AA-GPC as a substrate for further 10 min. The comparative groups, cPLA2 and sPLA2, were subjected to in a same procedure.
# To measure the functions of rPLA2 using inventive antibody, the supernatant obtained from above procedure was adopted to analyze the activity. PLA2 activity was measured in an assay system (100 μl) of 75 mM Tris-HCl (pH 7.5) containing […] of 2-[1-^14C]AA-GPC (110,000 cpm/4.5 nmol) mixed with 2-[1-^14C]AA-GPC, 4% glycerol, 5 mM CaCl2 and 0.2 % BSA.
# Prepared rPLA2 and cPLA2 and each inhibitor dissolved in 5 μl of DMSO solution was added and reacted for 10 min at 37° C. maintaining the temperature. 2-[1-^14C]AA-PC as a substrate was added and reacted for 10 min at 37° C. maintaining the temperature.
# To verify the mechanism of inhibition, Dixon plot was constructed (FIG. 31).
# [2] = test system: bovine RBCs; experiment: [3H]AA release from labeled bovine RBCs; assay type: cell-based; settings: for inhibition of AA release by A23187 in bovine RBC: 50 μM of EA4, 20 min, then 2 μM A23187, 37 °C
# Procedure: (§1) Human venous blood was collected in heparin (40 unit/ml) from some healthy volunteers among the Korean graduate students in our laboratory and bovine blood freshly collected in heparin (40 unit/ml) in a local slaughterhouse. After blood was centrifuged at 500×g for 20 min, the resulting supernatants of the platelet-rich plasma, the buffy coat and the leading edge of the packed RBCs were completely removed by aspiration. Sedimented RBCs, leukocytes, and platelets were re-suspended in a sterile buffer (50 mM Tris-HCl, pH 7.5, 1 mM EDTA, 0.12 M NaCl). This centrifugation and aspiration cycle was repeated six times taking care of removing leukocytes and platelets and the top 10% of the RBCs suspensions. Washed cell suspensions (10 ml) were subsequently depleted of residual leukocytes and platelets by filtration through a Sepharose 4B-200 column (20×2.5 cm) pre-equilibrated with sterile saline (0.9% w/v NaCl) as described above.
# (§2) The Sepharose 4B-200 column-purified RBCs suspensions (approximately 1×10^9 cells/ml) were twice washed with serum-free MEM containing 1 mg/ml of fatty acid-free bovine serum albumin (BSA) and labeled for 1 hr with 1.5 mCi [^3H]AA (1 mCi/0.1 ml ethanol)/ml of the same medium. Murine L929 cells (1-2×10^6 cells/ml) were labeled for 6 hrs with 1.5 mCi [^3H]AA (1 mCi/0.1 ml ethanol)/ml of the same medium. Thereafter, cells were washed three times to remove all unincorporated [^3H]AA. […]
# (§3) For analysis of [^3H] AA release, at each time of 0, 10, 30, 60 and 90 min after reaction between the cell and A23187, the RBCs were centrifuged as above, and each aliquot (200 μl) of the supernatants for the RBCs and each aliquot (100 μl ) of the conditioned media for the L929 cells was transferred to 2.5 ml of the scintillation counting solution and counted for radioactivity with a Packard Tri-carb liquid β-scintillation counter (Packard Instrument Co., Meriden, Conn.). […]
# (§4) Cells were collected and centrifuged at the interval of 10 min. And the radioactivity was measured by scintillation counter.
# [3] = test system: human RBCs; experiment: [3H]AA release from labeled human RBCs; assay type: cell-based; settings: for inhibition of AA release by A23187 in human RBC: 50 μM of EA4, 20 min, then 2 μM A23187, 37 °C
# Procedure: as §1, §2, §3, §4
# [4] = test system: L929 cells; experiment: [3H]AA release from labeled L929 cells; assay type: cell-based, murine; settings: 50 μM of EA4, 20 min, then 2 μM A23187, 37 °C
# Procedure: The Sepharose 4B-200 column-purified RBCs suspensions (approximately 1×10^9 cells/ml) were twice washed with serum-free MEM containing 1 mg/ml of fatty acid-free bovine serum albumin (BSA) and labeled for 1 hr with 1.5 mCi [^3H]AA (1 mCi/0.1 ml ethanol)/ml of the same medium. Murine L929 cells (1-2×10^6 cells/ml) were labeled for 6 hrs with 1.5 mCi [^3H]AA (1 mCi/0.1 ml ethanol)/ml of the same medium. Thereafter, cells were washed three times to remove all unincorporated [^3H]AA. The labeled cells were incubated in MEM containing 1 mg/ml BSA as a trap for the released [^3H]AA and then stimulated with vehicle (0.1 μl ethanol/ml medium) or 2 μM of calcium ionophore A23187 at 37° C. And a control group is treated with vehicle only without A23187 compound.
# as §3, §4
# [5] = test system: cPLA2; experiment: cPLA2 enzyme activity assay with inhibitors (comparative group); assay type: biochemical, porcine; settings: substrate 2-[1-14C]AA-PC, 10 min, 37° C.
# Source text: Stearoyl-2-[1-^14C]arachidonyl-sn-glycerol-3-phosphocholine (2-[1-^14C]AA-GPC) (55.3 mCi/mmol), 1-palmitoyl-2-[1-^14C]palmitoyl-sn-glycerol-3-phosphocholine (2-[1-^14C]PA-GPC) (55.6 mCi/mmol), 1-palmitoyl-2-[1-^14C]linoleoyl-sn-glycerol-3-phosphocholine (2-[1-^14C]LA-GPC) (55.9 mCi/mmol), 1-acyl-2-[1-^14C]arachidonyl-sn-glycerol-3-phosphoethanolamine (2-[1-^14C]AA-GPE) (55.1 mCi/mmol) and [^3H]arachidonic acid (AA) (204 Ci/mmol) ([^3H]AA) were purchased from the radio-chemical center, Amersham Life Science Ltd. (Buckinghamshire, UK). 1-Stearoyl-2-arachidonyl-sn-glycerol-3-phosphocholine (2-AA-GPC), dithiothreitol (DTT), A23187, 3,3′-diaminobenzidine (DAB), methylcellulose, erythropoietin and Sepharose 4B-200 gel filtration column were purchased from Sigma Co. (St. Louis, Mo.). Anti-human secretory 14 kDa sPLA2 antibody was purchased from Upstate Biotechnology, Inc. (Lake Placid, N.Y.). Goat anti-rabbit- and anti-mouse-alkaline phosphatase conjugates were purchased from Santa Cruz Biotechnology Inc., Santa Cruz, Calif. Group IV cytosolic PLA2 (cPLA2) was purified from porcine spleen and anti-cPLA2 polyclonal antibody was generated as described above(Kim, D. K., and Bonventure, J. V., Biochem. J., 294, 261-270, 1993). Group II secretory PLA2 (sPLA2) was partially purified from bovine platelets as described above (Hara, S et al., J. biochem., 105, 395-399, 1989). […]
# [6] = 2 μM A23187, 37° C., 0-90 min, time-dependent
smiles,measurement,setting,value
[Sr+2] [Sr^2+],activation of rPLA2 activity by divalent metal cation,[1],activated
[Mn+2] [Mn^2+],activation of rPLA2 activity by divalent metal cation,[1],activated
"CCN(CC)c1ccc(C2=C(Cl)C(=O)c3ncccc3C2=O)cc1 [EA4, 7-chloro-6-[4-(diethylamine)phenyl]-5,8-quinolinedione]",inhibitory pattern on rPLA2,[1]; Dixon plot,competitive; also recorded: competitively
same,Ki,"[1]; Dixon plot, competitive inhibition, read-out: inhibition constant (Ki) for rPLA2",130 µM
same,inhibition of rPLA2 activity,[1],inhibited
same,inhibition of AA release by A23187 in bovine RBC,[2],significantly inhibited; also recorded: inhibits the release
same,inhibition of AA release by A23187 in human RBC,[3],significantly inhibited
same,inhibition of AA release in L929 cells,[4],inhibited
same,inhibition of cPLA2 activity,[5],inhibited; also recorded: inhibits the activity of cPLA2
[Fe+2] [Fe^2+],activation of rPLA2 activity by divalent metal cation,[1],activated
[Cu+2] [Cu^2+],activation of rPLA2 activity by divalent metal cation,[1],activated
[Ba+2] [Ba^2+],activation of rPLA2 activity by divalent metal cation,[1],activated
"[CH3][Hg][Cl] [methyl mercury, reference compound]",effect on rPLA2 activity compared with cPLA2,[1],less effective activity than cPLA2
same,inhibition of rPLA2 activity,[1],not inhibited
"[Cl][Hg][Cl] [mercuric chloride, reference compound]",effect on rPLA2 activity compared with cPLA2,[1],different profile from cPLA2
same,inhibition of rPLA2 activity,[1],not inhibited
"CC(C)(C)c1cc(C2=C(Cl)C(=O)c3ccccc3C2=O)cc(C(C)(C)C)c1O [TP1, 2-(3,5-Di-tert-butyl-4-hydroxyphenyl)-3-chloro-1,4-naphthalene dione, reference compound]",inhibition of rPLA2 activity,[1],inhibited that of cPLA2 only; also recorded: not inhibited
same,inhibition of AA release by A23187 in bovine RBC,[2],not inhibited
same,inhibition of AA release by A23187 in human RBC,[3],not inhibited
same,inhibition of AA release in L929 cells,[4],inhibited
same,inhibition of cPLA2 activity,[5],inhibited
[Zn+2] [Zn^2+],activation of rPLA2 activity by divalent metal cation,[1],activated
[Mg+2] [Mg^2+],activation of rPLA2 activity by divalent metal cation,[1],activated
"O[C@H](CS)[C@H](O)CS (racemic) [DTT, dithiothreitol, reference compound]",inhibition of rPLA2 activity,[1],not inhibited
"CCN(CC)CCCC(C)Nc1c2ccc(Cl)cc2nc2ccc(OC)cc12 (stereo not drawn) [mepacrine, reference compound]",inhibition of rPLA2 activity,[1],not inhibited
"CNc1ccc2oc(C[C@H]3O[C@@]4(CC[C@H]3C)O[C@H]([C@H](C)C(=O)c3ccc[nH]3)[C@H](C)C[C@H]4C)nc2c1C(=O)O [A23187, reference compound]",release of [3H]AA from bovine RBCs,[2]; [6],released
same,release of [3H]AA from human RBCs,[3]; [6],released
